# According to PMC4999093, “Novel NAD^+-Farnesal Dehydrogenase from Polygonum minus Leaves. Purification and Characterization of Enzyme in Juvenile Hormone III Biosynthetic Pathway in Plant” (PLoS ONE, 2016):
# Tested on: T1, NAD^+-farnesal dehydrogenase (P. minus farnesal dehydrogenase)
# T1 construct: native enzyme purified from leaves, untagged
# Assay: NADH formation at […] nm, Lineweaver-Burk
# Assay type: biochemical, Persicaria minor
# Details: 100 mM glycine-NaOH pH 9.5, 35°C
structure (smiles),measurement,setting,value
"CC(C)=CCC/C(C)=C/CC/C(C)=C/C=O (mixture of isomers) [Farnesal, 3,7,11-trimethyl-2,6,10-dodecatrienal]",Km,"1.0 mM NAD+, substrate is a mixture of isomers",130 µM
C/C(C=O)=C\c1ccccc1 [α-methylcinnamaldehyde],Km,1.0 mM NAD+,1280 µM
NC(=O)c1ccc[n+]([C@@H]2O[C@H](COP(=O)(O)OP(=O)(O)OC[C@H]3O[C@@H](n4cnc5c(N)ncnc54)[C@H](O)[C@@H]3O)[C@@H](O)[C@H]2O)c1 [NAD^+],Km,co-substrate farnesal,310 µM
O=C/C=C/c1ccccc1 [trans-cinnamaldehyde],Km,1.0 mM NAD+,860 µM
"CC(C)=CCCC(C)=CC=O (mixture of isomers) [Citral, 3,7-dimethyl-2,6-octadienal]",Km,"1.0 mM NAD+, substrate is a mixture of geranial and neral",690 µM
